Experimental data: the supplement of paper PMC10307832

Key:
Assay in all cases: relative viability (nuclei count vs DMSO), 5 days (fraction); higher = more cells survive
RAF265 + Foretinib = compound: Cn1c(Nc2ccc(C(F)(F)F)cc2)nc2cc(Oc3ccnc(-c4ncc(C(F)(F)F)[nH]4)c3)ccc21 [RAF265] + COc1cc2c(Oc3ccc(NC(=O)C4(C(=O)Nc5ccc(F)cc5)CC4)cc3F)ccnc2cc1OCCCN1CCOCC1 [Foretinib] (partner 0.25 µM)
Method in brief: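 Cells from lung cancer lines were seeded into 1536-well plates and, one day later, dosed by pin tool. Treatments were either a single drug or a fixed dose of an anchor drug with five library-drug doses (not always all listed) in √10 steps. After 5 days, nuclei were stained in a one-step fixation (final 0.05% Triton X-100, 1% formaldehyde, 1 ug/ml Hoechst) and counted on 4× images, and relative viability is the treated-to-vehicle nuclei ratio, as the median of duplicate plates.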

Doramapimod = compound: Cc1ccc(-n2nc(C(C)(C)C)cc2NC(=O)Nc2ccc(OCCN3CCOCC3)c3ccccc23)cc1 [Doramapimod]
Method in brief: (§1)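 Lung cancer cell lines in 1536-well plates were exposed by pinning to five library-drug doses (not always all listed) √10 apart, following an overnight hold at 37 °C. MetaXpress counted Hoechst-stained nuclei from 4× images taken after 5 days without medium change. Viability is the median ratio of treated-well to vehicle-well nuclei across plates. Plates required control CV below 25% and at least one doubling.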

RAF265 = compound: Cn1c(Nc2ccc(C(F)(F)F)cc2)nc2cc(Oc3ccnc(-c4ncc(C(F)(F)F)[nH]4)c3)ccc21 [RAF265]
Method in brief: as §1

IPA-3 = compound: C1=CC=C2C(=C1)C=CC(=C2SSC3=C(C=CC4=CC=CC=C43)O)O [IPA-3]
Method in brief: as §1

Cell Line	relative viability (RAF265 + Foretinib; first compound 0.01 µM)	relative viability (RAF265 + Foretinib; first compound 0.03162 µM)	relative viability (RAF265 + Foretinib; first compound 0.1 µM)	relative viability (RAF265 + Foretinib; first compound 1 µM)	relative viability (Doramapimod; 0.02 µM)	relative viability (Doramapimod; 0.06325 µM)	relative viability (Doramapimod; 0.2 µM)	relative viability (Doramapimod; 0.6325 µM)	relative viability (Doramapimod; 2 µM)	relative viability (RAF265; 0.01 µM)	relative viability (RAF265; 0.03162 µM)	relative viability (RAF265; 0.1 µM)	relative viability (RAF265; 1 µM)	relative viability (IPA-3; 0.2 µM)	relative viability (IPA-3; 0.6325 µM)	relative viability (IPA-3; 2 µM)	relative viability (IPA-3; 6.325 µM)	relative viability (IPA-3; 20 µM)	relative viability (RAF265 + Foretinib; first compound 0.3162 µM)	relative viability (RAF265; 0.3162 µM)
PC-14	0.969	1.01	0.928	0.817	1.06	0.998	0.968	1.14	0.933	1.02	0.967	1.1	0.845	1.16	0.963	0.936	0.898	1.09	–	–
Calu-6	0.899	0.782	0.763	0.29	0.995	0.979	1.04	1.09	1.01	0.97	0.842	0.791	0.347	1.1	0.971	0.984	0.998	1.04	0.428	0.505
NCI-H1703	0.335	0.318	0.351	0.253	0.923	0.918	0.876	1.11	0.612	0.783	0.792	0.831	0.352	1.27	0.86	1.02	0.935	1.04	0.357	0.652
NCI-H1650	1.01	1.29	1.35	0.953	0.998	0.99	1.17	1.2	0.966	1.09	0.904	1.11	0.765	1.13	0.787	0.931	1.01	1	1.17	0.75
NCI-H727	0.879	0.895	0.98	0.454	0.971	0.972	1.05	0.885	0.787	0.932	0.908	0.834	0.62	0.929	0.938	0.816	0.901	0.899	0.744	0.7
COR-L23	1.01	0.962	0.864	0.644	1.01	1.08	0.981	0.964	0.949	1.19	0.92	0.879	0.626	1.15	0.912	1.11	0.923	0.982	0.893	0.74
ChaGo-K-1	0.969	0.827	0.825	0.646	0.988	1.09	0.983	0.975	0.916	0.977	1.04	1.01	0.789	1.05	0.96	0.96	1.06	1.07	0.819	0.865
HOP-62	1.14	0.979	0.973	0.852	1.02	1.06	1.08	0.931	0.975	1.12	0.989	0.952	0.834	1.08	0.925	0.986	1	1.09	1.04	1
NCI-H1915	1.09	1.05	0.869	0.306	0.986	0.994	1.04	0.99	0.885	0.987	0.915	0.757	0.3	1.1	0.997	0.989	0.96	1.01	0.348	0.489
BEN	0.665	0.776	0.701	0.568	0.874	0.922	1	0.82	0.884	0.968	1.11	1.11	0.907	0.982	0.951	1.07	0.943	1.15	0.664	0.95
NCI-H1437	1.22	1.28	1.28	1.31	1.05	1.05	0.985	1.07	0.948	1.02	0.99	1.01	0.954	1.13	1.01	0.994	1.04	1.08	1.33	1.03
EMC-BAC-2	1.09	0.741	0.753	0.276	1	1.2	1.01	0.954	0.863	0.94	0.885	0.639	0.236	1.02	1.05	1	1.02	1.09	0.685	0.467
NCI-H647	1.14	0.867	0.957	0.659	1.05	1.03	1.07	0.995	0.913	0.931	0.974	0.886	0.505	1.27	0.906	0.88	0.758	0.568	0.979	0.645
LXF-289	0.999	0.986	0.938	0.709	0.999	0.986	1.01	0.982	0.943	1.02	1.1	0.976	0.768	1.08	0.999	1.04	1.06	1.13	0.875	0.807
LOU-NH91	1.04	0.845	0.954	0.71	1.09	0.996	1.05	1.08	0.691	1.05	0.976	0.905	0.753	0.953	0.94	1.01	1.01	1.19	0.582	0.733
NCI-H23	0.741	0.847	0.739	0.442	0.966	1.04	1.06	0.864	0.946	0.966	0.847	0.906	0.41	1.08	0.944	0.895	0.917	0.923	0.724	0.416

Cell Line	relative viability (RAF265 + Foretinib; first compound 0.01 µM)	relative viability (RAF265 + Foretinib; first compound 0.03162 µM)	relative viability (RAF265 + Foretinib; first compound 0.1 µM)	relative viability (RAF265 + Foretinib; first compound 1 µM)	relative viability (Doramapimod; 0.02 µM)	relative viability (Doramapimod; 0.06325 µM)	relative viability (Doramapimod; 0.2 µM)	relative viability (Doramapimod; 0.6325 µM)	relative viability (Doramapimod; 2 µM)	relative viability (RAF265; 0.01 µM)	relative viability (RAF265; 0.03162 µM)	relative viability (RAF265; 0.1 µM)	relative viability (RAF265; 1 µM)	relative viability (IPA-3; 0.2 µM)	relative viability (IPA-3; 0.6325 µM)	relative viability (IPA-3; 2 µM)	relative viability (IPA-3; 6.325 µM)	relative viability (IPA-3; 20 µM)	relative viability (RAF265 + Foretinib; first compound 0.3162 µM)	relative viability (RAF265; 0.3162 µM)
NCI-H1993	0.86	0.729	0.783	0.575	1.06	0.941	0.852	1.14	0.864	1.04	0.94	1	0.794	0.981	0.99	0.873	0.97	1.01	0.777	0.799
HCC-827	0.986	0.971	1.06	0.729	1.02	1.05	1.07	0.902	0.863	1.03	0.963	1.05	0.903	1.07	1.05	1.05	0.955	0.978	–	–
NCI-H1623	0.977	0.867	0.983	0.562	0.986	0.982	0.944	0.775	0.88	1.06	0.945	1.09	0.798	1.07	0.943	0.971	0.951	0.993	0.39	0.456
NCI-H650	1.1	0.965	0.974	0.484	0.965	1.02	1.11	0.901	0.913	1.07	0.845	0.969	0.51	1.2	0.977	0.861	1.03	1.12	0.814	0.615
CAL-12T	1.26	1.12	1.01	0.746	0.995	0.976	1.03	1.01	0.931	1.08	0.955	0.936	0.603	1.15	0.846	0.967	0.93	1.03	0.924	0.723
NCI-H838	1.06	1.07	1.01	0.951	0.993	1.02	1.06	1.05	0.949	0.981	1	0.973	0.773	1.08	0.942	0.972	0.969	1.1	1.07	0.93
NCI-H2228	0.893	0.819	0.781	0.386	1.13	0.988	1.02	1.07	0.795	0.967	0.89	0.926	0.309	1.44	0.864	1.04	1.05	1.02	0.542	0.498
RERF-LC-KJ	0.867	0.85	0.891	0.774	1.09	1.03	1.07	1.02	0.999	1.03	0.974	0.987	0.715	1.14	0.943	0.946	0.991	1.07	0.759	0.791
NCI-H661	1.05	0.944	0.685	0.521	0.978	1.02	0.995	1.06	0.915	1.01	0.962	0.774	0.57	1.09	0.951	0.984	1	1.01	0.636	0.643
HCC-366	0.99	0.841	0.9	0.914	0.951	0.979	1	1.04	0.99	1.03	0.99	1.06	0.947	1.04	0.976	0.98	1.03	1.05	0.996	0.975
SK-LU-1	0.889	0.615	0.491	0.318	1.02	1.07	1.11	1.14	1.12	1.1	0.893	0.858	0.494	1.35	0.981	1.08	0.985	1.16	0.411	0.56
A-427	1.12	0.962	0.846	0.204	0.962	1.03	1.1	–	0.985	1.03	0.862	1.01	0.356	1.14	0.965	0.976	0.962	1.11	0.26	0.575
SW 1573	1	1.01	0.887	0.732	0.946	0.9	0.844	0.952	0.838	1.18	0.89	0.955	0.573	1.13	0.919	1.01	0.94	0.696	0.792	0.98
NCI-H322M	1.09	1.03	0.781	0.275	1.05	0.993	0.998	1.3	0.937	1.04	1	0.597	0.282	1.01	0.902	1.02	1.03	1	0.402	0.38
ABC-1	1.16	1.15	1.2	0.514	0.996	0.864	0.955	0.895	0.961	1.22	0.881	0.986	0.633	1.08	0.972	0.805	1.04	1.02	1.08	0.803
SW 900	1.01	0.835	0.748	0.546	0.893	1.03	0.941	0.945	0.737	1.06	0.792	0.856	0.527	1.13	0.698	0.686	0.775	0.775	0.769	0.679
